Results from patent publication US20220348565A1, “PHARMACEUTICAL COMPOUNDS” (SENTINEL ONCOLOGY LIMITED, priority 2019, published 2022).

Columns and labels:
Experiment in all cases: DiscoverX KinomeScreen kinase selectivity competition binding assay
[1] = target: T1, panel of ninety-seven kinases (Homo sapiens, UniProt O15111); conditions: CHUK; read-out: % Ctrl @ 3 μM
T1 construct: purchased DiscoverX; host or cells: T7 phage in E. coli (BL21-derived) for most kinases; HEK-293 for the rest
Method in brief: (§1)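 Site-directed competition binding: kinase (T7 phage-tagged or HEK-293-expressed, DNA-tagged) captured on immobilized biotinylated ligand beads, with compound at 3000 nM. Bound kinase eluted and quantified by qPCR. Reported as % Ctrl, with DMSO as 100% and control compound as 0%.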

[2] = target: T2, panel of ninety-seven kinases (Homo sapiens, UniProt P04049); conditions: RAF1; read-out: % Ctrl @ 3 μM
T2 construct: purchased DiscoverX; host or cells: T7 phage in E. coli (BL21-derived) for most kinases; HEK-293 for the rest
T2 sequence (P04049 whole entry): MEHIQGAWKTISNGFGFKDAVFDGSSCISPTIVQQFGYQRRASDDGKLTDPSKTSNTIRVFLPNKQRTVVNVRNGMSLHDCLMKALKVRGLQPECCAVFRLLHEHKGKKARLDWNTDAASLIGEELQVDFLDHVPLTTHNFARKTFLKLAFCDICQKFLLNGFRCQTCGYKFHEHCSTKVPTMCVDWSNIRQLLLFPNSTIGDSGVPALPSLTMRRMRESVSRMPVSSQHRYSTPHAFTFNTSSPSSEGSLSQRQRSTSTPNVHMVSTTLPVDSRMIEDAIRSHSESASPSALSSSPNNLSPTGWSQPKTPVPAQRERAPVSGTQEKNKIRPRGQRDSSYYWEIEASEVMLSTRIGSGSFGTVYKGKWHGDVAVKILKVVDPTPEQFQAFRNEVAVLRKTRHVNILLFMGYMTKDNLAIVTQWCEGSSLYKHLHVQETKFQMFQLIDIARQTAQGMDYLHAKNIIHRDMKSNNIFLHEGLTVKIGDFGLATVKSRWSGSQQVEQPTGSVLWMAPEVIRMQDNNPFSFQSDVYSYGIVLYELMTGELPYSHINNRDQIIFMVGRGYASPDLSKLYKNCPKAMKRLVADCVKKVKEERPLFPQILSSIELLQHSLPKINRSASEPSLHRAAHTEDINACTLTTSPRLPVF
Method in brief: as §1

[3] = target: T3, panel of ninety-seven kinases (Homo sapiens, UniProt P04626); conditions: ERBB2; read-out: % Ctrl @ 3 μM
T3 construct: purchased DiscoverX; host or cells: T7 phage in E. coli (BL21-derived) for most kinases; HEK-293 for the rest
Method in brief: as §1

[4] = target: T4, panel of ninety-seven kinases (Homo sapiens, UniProt P04629); conditions: NTRK1; read-out: % Ctrl @ 3 μM
T4 construct: purchased DiscoverX; host or cells: T7 phage in E. coli (BL21-derived) for most kinases; HEK-293 for the rest
Method in brief: as §1

[5] = target: T5, panel of ninety-seven kinases (Homo sapiens, UniProt P07949); conditions: RET; read-out: % Ctrl @ 3 μM
T5 construct: purchased DiscoverX; host or cells: T7 phage in E. coli (BL21-derived) for most kinases; HEK-293 for the rest
Method in brief: as §1

[6] = target: T6, panel of ninety-seven kinases (Homo sapiens, UniProt P08581); conditions: MET; read-out: % Ctrl @ 3 μM
T6 construct: purchased DiscoverX; host or cells: T7 phage in E. coli (BL21-derived) for most kinases; HEK-293 for the rest
Method in brief: as §1

[7] = target: T7, panel of ninety-seven kinases (Homo sapiens, UniProt P22607); conditions: FGFR3; read-out: % Ctrl @ 3 μM
T7 construct: purchased DiscoverX; host or cells: T7 phage in E. coli (BL21-derived) for most kinases; HEK-293 for the rest
T7 sequence (P22607 23-806): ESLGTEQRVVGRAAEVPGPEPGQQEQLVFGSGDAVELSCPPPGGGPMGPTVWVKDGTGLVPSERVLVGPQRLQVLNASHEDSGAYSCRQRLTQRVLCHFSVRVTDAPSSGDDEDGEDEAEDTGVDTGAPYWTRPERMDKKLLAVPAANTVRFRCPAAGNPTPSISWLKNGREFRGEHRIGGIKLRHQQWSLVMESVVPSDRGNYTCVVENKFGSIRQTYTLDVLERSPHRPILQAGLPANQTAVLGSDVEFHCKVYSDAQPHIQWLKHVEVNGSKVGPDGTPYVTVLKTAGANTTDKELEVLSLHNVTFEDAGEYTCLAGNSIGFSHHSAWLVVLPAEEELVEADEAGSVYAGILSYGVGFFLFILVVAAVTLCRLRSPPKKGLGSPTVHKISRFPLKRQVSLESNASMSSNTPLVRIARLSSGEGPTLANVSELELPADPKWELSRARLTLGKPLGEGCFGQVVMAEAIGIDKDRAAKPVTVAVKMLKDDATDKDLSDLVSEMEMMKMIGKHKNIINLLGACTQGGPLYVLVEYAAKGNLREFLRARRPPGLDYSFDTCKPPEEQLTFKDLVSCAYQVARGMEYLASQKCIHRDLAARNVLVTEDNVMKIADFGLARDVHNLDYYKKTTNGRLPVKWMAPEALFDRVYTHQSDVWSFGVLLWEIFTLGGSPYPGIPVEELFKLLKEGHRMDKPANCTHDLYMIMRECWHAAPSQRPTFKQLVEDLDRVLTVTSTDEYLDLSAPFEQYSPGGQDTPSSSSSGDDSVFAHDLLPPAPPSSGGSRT
Method in brief: as §1

[8] = target: T8, panel of ninety-seven kinases (Homo sapiens, UniProt P27361); conditions: MAPK3; read-out: % Ctrl @ 3 μM
T8 construct: purchased DiscoverX; host or cells: T7 phage in E. coli (BL21-derived) for most kinases; HEK-293 for the rest
T8 sequence (P27361 whole entry): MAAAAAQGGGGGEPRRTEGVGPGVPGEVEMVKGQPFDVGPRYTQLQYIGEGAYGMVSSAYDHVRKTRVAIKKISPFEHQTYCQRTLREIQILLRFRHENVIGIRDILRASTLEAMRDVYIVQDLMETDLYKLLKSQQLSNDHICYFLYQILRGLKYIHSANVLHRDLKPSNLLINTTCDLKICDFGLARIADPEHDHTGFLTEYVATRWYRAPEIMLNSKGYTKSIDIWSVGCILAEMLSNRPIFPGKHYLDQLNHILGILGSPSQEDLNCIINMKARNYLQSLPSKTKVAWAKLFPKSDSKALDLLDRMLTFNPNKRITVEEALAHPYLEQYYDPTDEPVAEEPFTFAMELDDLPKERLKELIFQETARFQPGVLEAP
Method in brief: as §1

[9] = target: T9, panel of ninety-seven kinases (Homo sapiens, UniProt P36896); conditions: ACVR1B; read-out: % Ctrl @ 3 μM
T9 construct: purchased DiscoverX; host or cells: T7 phage in E. coli (BL21-derived) for most kinases; HEK-293 for the rest
T9 sequence (P36896 24-505): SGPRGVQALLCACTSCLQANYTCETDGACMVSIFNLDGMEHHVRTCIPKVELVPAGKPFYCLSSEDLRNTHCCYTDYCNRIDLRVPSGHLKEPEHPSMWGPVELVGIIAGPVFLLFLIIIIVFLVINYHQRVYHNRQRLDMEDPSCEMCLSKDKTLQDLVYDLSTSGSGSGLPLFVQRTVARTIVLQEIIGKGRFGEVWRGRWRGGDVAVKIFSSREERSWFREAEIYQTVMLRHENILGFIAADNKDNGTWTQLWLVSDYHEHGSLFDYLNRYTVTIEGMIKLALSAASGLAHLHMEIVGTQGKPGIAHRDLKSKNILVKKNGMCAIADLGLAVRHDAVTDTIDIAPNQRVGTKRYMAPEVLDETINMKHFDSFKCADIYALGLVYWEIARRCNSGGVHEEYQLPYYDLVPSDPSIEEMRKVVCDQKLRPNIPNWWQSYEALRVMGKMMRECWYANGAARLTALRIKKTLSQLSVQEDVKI
Method in brief: as §1

[10] = target: T10, panel of ninety-seven kinases (Homo sapiens, UniProt P45983); conditions: MAPK8; read-out: % Ctrl @ 3 μM
T10 construct: purchased DiscoverX; host or cells: T7 phage in E. coli (BL21-derived) for most kinases; HEK-293 for the rest
Method in brief: as §1

[11] = target: T11, panel of ninety-seven kinases (Homo sapiens, UniProt Q02750); conditions: MAP2K1; read-out: % Ctrl @ 3 μM
T11 construct: purchased DiscoverX; host or cells: T7 phage in E. coli (BL21-derived) for most kinases; HEK-293 for the rest
Method in brief: as §1

[12] = target: T12, panel of ninety-seven kinases (Homo sapiens, UniProt Q05397); conditions: PTK2; read-out: % Ctrl @ 3 μM
T12 construct: purchased DiscoverX; host or cells: T7 phage in E. coli (BL21-derived) for most kinases; HEK-293 for the rest
Method in brief: as §1

[13] = target: T13, panel of ninety-seven kinases (Homo sapiens, UniProt Q06187); conditions: BTK; read-out: % Ctrl @ 3 μM
T13 construct: purchased DiscoverX; host or cells: T7 phage in E. coli (BL21-derived) for most kinases; HEK-293 for the rest
T13 sequence (Q06187 whole entry): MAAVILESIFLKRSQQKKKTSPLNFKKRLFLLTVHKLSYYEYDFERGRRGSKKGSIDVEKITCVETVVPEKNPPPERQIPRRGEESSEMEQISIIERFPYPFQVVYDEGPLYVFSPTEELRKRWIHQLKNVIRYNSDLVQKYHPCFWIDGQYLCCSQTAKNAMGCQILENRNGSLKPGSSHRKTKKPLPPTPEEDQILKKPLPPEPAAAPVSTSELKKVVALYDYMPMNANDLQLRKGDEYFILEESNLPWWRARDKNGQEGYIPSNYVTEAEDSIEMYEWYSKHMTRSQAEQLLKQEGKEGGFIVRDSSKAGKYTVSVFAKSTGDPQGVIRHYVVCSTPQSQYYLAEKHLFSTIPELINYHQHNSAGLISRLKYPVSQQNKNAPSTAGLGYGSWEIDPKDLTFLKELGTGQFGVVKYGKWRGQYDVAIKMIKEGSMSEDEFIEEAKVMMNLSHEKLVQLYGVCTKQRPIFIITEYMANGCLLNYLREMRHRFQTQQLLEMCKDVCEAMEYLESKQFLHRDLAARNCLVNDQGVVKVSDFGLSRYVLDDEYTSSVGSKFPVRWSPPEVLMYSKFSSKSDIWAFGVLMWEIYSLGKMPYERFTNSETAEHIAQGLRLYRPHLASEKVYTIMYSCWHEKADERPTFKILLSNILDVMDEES
Method in brief: as §1

[14] = target: T14, panel of ninety-seven kinases (Homo sapiens, UniProt Q8IYT8); conditions: ULK2; read-out: % Ctrl @ 3 μM
T14 construct: purchased DiscoverX; host or cells: T7 phage in E. coli (BL21-derived) for most kinases; HEK-293 for the rest
Method in brief: as §1

[15] = target: T15, panel of ninety-seven kinases (Homo sapiens, UniProt Q96GD4); conditions: AURKB; read-out: % Ctrl @ 3 μM
T15 construct: purchased DiscoverX; host or cells: T7 phage in E. coli (BL21-derived) for most kinases; HEK-293 for the rest
T15 sequence (Q96GD4 whole entry): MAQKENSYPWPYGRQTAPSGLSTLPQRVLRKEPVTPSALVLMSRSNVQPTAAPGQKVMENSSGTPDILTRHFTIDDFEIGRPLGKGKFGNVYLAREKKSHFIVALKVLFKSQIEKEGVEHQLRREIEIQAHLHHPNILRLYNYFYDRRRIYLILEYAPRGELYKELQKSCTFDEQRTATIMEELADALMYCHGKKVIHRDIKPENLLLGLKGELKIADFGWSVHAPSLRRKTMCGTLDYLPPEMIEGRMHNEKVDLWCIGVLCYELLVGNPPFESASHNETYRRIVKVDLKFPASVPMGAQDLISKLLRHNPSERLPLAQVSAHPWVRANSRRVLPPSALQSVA
Method in brief: as §1

[16] = target: T16, panel of ninety-seven kinases (Homo sapiens, UniProt Q9P1W9); conditions: PIM2; read-out: % Ctrl @ 3 μM
T16 construct: purchased DiscoverX; host or cells: T7 phage in E. coli (BL21-derived) for most kinases; HEK-293 for the rest
T16 sequence (Q9P1W9 whole entry): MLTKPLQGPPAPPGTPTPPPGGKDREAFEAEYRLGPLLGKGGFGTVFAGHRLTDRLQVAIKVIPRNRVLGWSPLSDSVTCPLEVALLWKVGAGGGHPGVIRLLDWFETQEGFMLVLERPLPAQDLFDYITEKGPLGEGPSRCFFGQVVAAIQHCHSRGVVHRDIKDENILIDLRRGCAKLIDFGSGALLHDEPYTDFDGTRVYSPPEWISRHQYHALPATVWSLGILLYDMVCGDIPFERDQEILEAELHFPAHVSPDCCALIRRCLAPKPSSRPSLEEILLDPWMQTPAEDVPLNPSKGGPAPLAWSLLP
Method in brief: as §1

[17] = target: T17, panel of ninety-seven kinases (Homo sapiens, UniProt Q9Y463); conditions: DYRK1B; read-out: % Ctrl @ 3 μM
T17 construct: purchased DiscoverX; host or cells: T7 phage in E. coli (BL21-derived) for most kinases; HEK-293 for the rest
T17 sequence (Q9Y463 whole entry): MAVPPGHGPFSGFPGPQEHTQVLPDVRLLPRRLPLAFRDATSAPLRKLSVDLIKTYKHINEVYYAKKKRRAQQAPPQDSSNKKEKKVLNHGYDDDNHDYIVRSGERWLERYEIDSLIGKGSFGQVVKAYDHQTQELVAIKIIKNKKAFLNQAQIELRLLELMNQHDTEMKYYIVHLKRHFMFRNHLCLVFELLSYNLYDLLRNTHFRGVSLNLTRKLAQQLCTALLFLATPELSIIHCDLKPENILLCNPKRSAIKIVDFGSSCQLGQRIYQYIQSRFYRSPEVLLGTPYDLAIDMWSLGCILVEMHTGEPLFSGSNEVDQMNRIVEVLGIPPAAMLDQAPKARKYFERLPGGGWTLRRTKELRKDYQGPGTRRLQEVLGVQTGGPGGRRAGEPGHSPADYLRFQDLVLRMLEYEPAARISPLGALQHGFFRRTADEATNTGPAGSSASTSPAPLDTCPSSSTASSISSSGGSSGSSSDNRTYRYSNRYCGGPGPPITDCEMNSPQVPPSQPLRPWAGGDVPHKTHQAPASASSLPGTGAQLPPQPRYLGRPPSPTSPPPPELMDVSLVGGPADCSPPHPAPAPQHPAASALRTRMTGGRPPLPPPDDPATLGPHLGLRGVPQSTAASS
Method in brief: as §1

T1 sequence (O15111 whole entry): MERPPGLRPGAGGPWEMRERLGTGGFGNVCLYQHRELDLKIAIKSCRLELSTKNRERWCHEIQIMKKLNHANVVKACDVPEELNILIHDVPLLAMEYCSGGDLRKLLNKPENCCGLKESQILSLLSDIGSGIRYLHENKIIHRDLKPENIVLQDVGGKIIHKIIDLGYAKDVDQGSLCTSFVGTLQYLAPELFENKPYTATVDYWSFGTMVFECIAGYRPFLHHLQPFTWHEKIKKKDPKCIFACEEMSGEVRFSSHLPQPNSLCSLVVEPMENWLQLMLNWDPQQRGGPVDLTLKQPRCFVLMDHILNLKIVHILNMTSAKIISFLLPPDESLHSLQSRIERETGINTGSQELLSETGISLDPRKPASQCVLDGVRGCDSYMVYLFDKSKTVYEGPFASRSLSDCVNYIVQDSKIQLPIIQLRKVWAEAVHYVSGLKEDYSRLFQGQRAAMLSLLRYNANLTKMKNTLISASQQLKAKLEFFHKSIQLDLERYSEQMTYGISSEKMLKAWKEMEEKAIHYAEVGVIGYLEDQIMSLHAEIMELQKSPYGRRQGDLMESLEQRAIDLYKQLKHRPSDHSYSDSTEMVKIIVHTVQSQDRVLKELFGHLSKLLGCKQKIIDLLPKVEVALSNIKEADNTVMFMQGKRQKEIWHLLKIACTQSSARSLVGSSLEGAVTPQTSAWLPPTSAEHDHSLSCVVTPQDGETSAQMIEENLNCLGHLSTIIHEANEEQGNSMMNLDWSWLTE

CN(C)CCNC(=O)c1ccc(-c2ccc(-c3ccc(Cl)cc3)n2-c2ccccc2C(F)(F)F)cc1 (single isomer, unassigned) [Atropisomer A-2, 4-[5-(4-chlorophenyl)-1-[2-(trifluoromethyl)phenyl]pyrrol-2-yl]-N-[2-(dimethylamino)ethyl]benzamide]
percent of control kinase binding to immobilized ligand at 3 µM [1]: 100% | percent of control kinase binding to immobilized ligand at 3 µM [2]: 92% | percent of control kinase binding to immobilized ligand at 3 µM [3]: 66% | percent of control kinase binding to immobilized ligand at 3 µM [4]: 100% | percent of control kinase binding to immobilized ligand at 3 µM [5]: 95% | percent of control kinase binding to immobilized ligand at 3 µM [6]: 100% | percent of control kinase binding to immobilized ligand at 3 µM [7]: 92% | percent of control kinase binding to immobilized ligand at 3 µM [8]: 99% | percent of control kinase binding to immobilized ligand at 3 µM [9]: 96% | percent of control kinase binding to immobilized ligand at 3 µM [10]: 77% | percent of control kinase binding to immobilized ligand at 3 µM [11]: 84% | percent of control kinase binding to immobilized ligand at 3 µM [12]: 98% | percent of control kinase binding to immobilized ligand at 3 µM [13]: 94% | percent of control kinase binding to immobilized ligand at 3 µM [14]: 93% | percent of control kinase binding to immobilized ligand at 3 µM [15]: 84% | percent of control kinase binding to immobilized ligand at 3 µM [16]: 100% | percent of control kinase binding to immobilized ligand at 3 µM [17]: 97%
